Source: patent US8252814B2, “Agents and crystals for improving excretory potency of urinary bladder” (priority 1998, dated 2012)
Marks after values point to notes of the source that are not given here.

How the values were obtained:
[1] = Stability test, Experimental Example 7; format: physicochemical
Method: A number of specimens of the crystals obtained in Example 1 were stored under the following conditions and then their changes in the property and the remaining percent were determined.
Storing conditions: 1. 60° C. for 3 months (in a brown glass bottle, closed); 2. 45° C., the relative humidity of 75% for 3 months (in a brown glass bottle, closed); 3. 40° C., the to relative humidity of 75% for 3 months (in a brown glass bottle, opened); 4. irradiated with a xenon lamp (60000 lux) for 20 hours (1.2 million lux/hour) (on a Petri dish covered with a polyvinylidene chloride film).

[2] = biological target: T1, human erythrocyte-derived acetylcholine esterase (Homo sapiens, UniProt P22303); assay: Determination of the activity to inhibit the acetylcholine esterase of the crystals (Ellman method), Experimental Example 5; format: biochemical; details: at least three experiments
T1 construct: Acetylcholinesterase of human erythrocyte origin (Sigma Chemical Co.); purchased Sigma Chemical Co; host or cells: human erythrocytes (natural source)
T1 sequence (P22303 32-617 isoform P22303-2 limits assumed): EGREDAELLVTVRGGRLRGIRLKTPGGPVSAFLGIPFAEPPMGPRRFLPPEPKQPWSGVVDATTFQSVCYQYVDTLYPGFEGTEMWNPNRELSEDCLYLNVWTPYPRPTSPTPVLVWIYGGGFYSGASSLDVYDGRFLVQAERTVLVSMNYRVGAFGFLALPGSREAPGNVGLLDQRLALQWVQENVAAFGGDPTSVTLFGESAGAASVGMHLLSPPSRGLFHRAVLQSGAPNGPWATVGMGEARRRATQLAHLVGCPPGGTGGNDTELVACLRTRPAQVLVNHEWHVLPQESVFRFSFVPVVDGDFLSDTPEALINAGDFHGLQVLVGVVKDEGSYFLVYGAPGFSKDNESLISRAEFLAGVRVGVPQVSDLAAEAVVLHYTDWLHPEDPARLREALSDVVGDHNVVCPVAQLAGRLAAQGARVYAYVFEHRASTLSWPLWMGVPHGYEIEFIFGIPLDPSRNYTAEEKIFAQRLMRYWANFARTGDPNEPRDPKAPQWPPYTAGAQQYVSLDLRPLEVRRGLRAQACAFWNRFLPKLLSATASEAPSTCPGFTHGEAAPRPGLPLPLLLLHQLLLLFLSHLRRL
Method: The activity to inhibit the acetylcholine esterase of the crystals obtained in Example 1 was determined according to the acetylthiocholine method (the Ellman method) by the use of a human erythrocyte-derived acetylcholine esterase.
A human erythrocyte-derived acetylcholine esterase (Sigma Chemical Company) was dissolved into distilled water to obtain a standard enzyme preparation with an enzyme concentration of 0.2 IU/mL. […]
The activity to inhibit the acetylcholine esterase of the crystals obtained in Example 1 was determined according to the acetylthiocholine method (the ElIman method) by the use of a human erythrocyte-derived acetylcholine esterase.
A human erythrocyte-derived acetylcholine esterase (Sigma Chemical Company) was dissolved into distilled water to obtain a standard enzyme preparation with an enzyme concentration of 0.2 IU/mL. […] As soon as 50 μl of a 4-mM solution of acetylthiocholine iodide (Sigma Chemical Company) was added and shaking was started again, every increment in absorbance at the wavelength of 414 nm at an interval of 30 seconds was determined for 10 minutes. R=5.74×10^−7×ΔA (wherein R indicates an enzyme activity (mol) and ΔA indicates an increment in absorbance at the wavelength of 414 nm). […] Furthermore, the activity to inhibit the acetylcholine esterase of distigmine was determined in a manner similar to that described in the above method.

[3] = biological target: T2, acetylcholinesterase of human erythrocyte origin (Homo sapiens, UniProt P22303); assay: Measurement of acetylcholinesterase-inhibiting action (acetylthiocholine / Ellman method), Experimental Example 1; format: biochemical; details: at least 3 experiments
T2 construct: Acetylcholinesterase of human erythrocyte origin (Sigma Chemical Co.); purchased Sigma Chemical Co; host or cells: human erythrocytes (natural source)
T2 sequence (P22303 32-617 isoform P22303-2 limits assumed): as above
Method: Acetylcholinesterase-inhibiting action of the compounds disclosed in Reference Examples was measured using acetylcholinesterase of human erythrocyte origin according to the acetylthiocholine method (Ellman method).
Acetylcholinesterase of human erythrocyte origin (Sigma Chemical Co.) was dissolved in distilled water at a concentration of 0.2 IU/mL to give an enzyme authentic sample. To a 96-well microplate was dispensed 20 μL of drug solution, 30 μL of 80 mM Tris-HCl (pH 7.4), 50 μL of enzyme authentic sample and 50 μL of 5 mM 5,5-dithio-bis(2-nitrobenzoic acid) (Sigma Chemical Co.), and the plate was shaken for 10 seconds. Then, 50 μL of acetylthiocholine iodide (Sigma Chemical Co.) was added, and the plate was again shaken. Immediately after shaking, increase of extinction at […] was measured at intervals of 30 seconds for 10 minutes. The enzyme activity was determined according to the following equation.
The experiment was repeated at least 3 times for each compound to obtain 50% inhibitory concentration (IC50). Moreover, in the same manner as mentioned above, acetylcholinesterase-inhibiting activity of distigmine was measured.

guinea pigs [4] = assay: Effect on urination efficiency in guinea pigs, Experimental Example 3; format: in vivo, Hartley male guinea pigs; details: guinea pig; for Efficiency of Urination (%) Before adm.: before administration; for Efficiency of Urination (%) After adm. / Improvement of Efficiency (%): 10 minutes after administration
Excerpt: Effect of the compounds of Reference Examples on urination efficiency was examined using Hartley male guinea pigs. Six to ten Hartley male guinea pigs weighing 346.5±3.5 g (SLC) were employed in each treated group. Guinea pigs were anesthetized with urethane, and held, and the bladder was exposed. Two polyethylene tubes (PE-50 and PE-100) were inserted into the bladder. One (PE-50) of the tubes was used in infusion of physiological saline, and the other (PE-100) was used for measurement of the internal pressure of the bladder. Saline was infused continuously at a flow rate of 0.3 mL/min. The infusion was stopped at the time when intermittent urination was confirmed at least 3 times, and the whole saline in bladder was removed. Again, infusion was started, and stopped at the time when a rise of the pressure in bladder was confirmed immediately before urination, and the time required for infusion and the weight of excreted urine were measured. Efficiency of urination was calculated from the following equation. Efficiency of urination (%)=100×Excreted volume (mL)/Infusion time (min)×0.3 (mL/min)
Measurement was made at least 2 times before administration of the test compound, and then the test compound was dissolved in distilled water and administered intravenously. […] Effect by administration of solvents was also confirmed.
The average measured value before administration of the test compounds was regarded as the value before administration, and applied to the paired-t test for a significant difference test with the value after the administration. (** p<0.01, * p<0.05)

urinary bladder = assay: Potentiation effect for rhythmic contraction of urinary bladder in guinea pig, Experimental Example 2; format: in vivo, Hartley male guinea pigs; details: Cavia porcellus, iv, urethane-anesthetized guinea pig; dose at which AUC of bladder internal pressure before drug administration was increased 2 times; read-out: AUC200 (mg/kg, i.v.)
Method: Potentiation effect of the compounds disclosed in Reference Examples for rhythmic contraction of urinary bladder was examined using Hartley male guinea pigs. Hartley male guinea pigs (SLC) weighing about 300 g were anesthetized with urethane (1.2 g/kg, i.p.), held, and incised at the midline of abdomen to expose the bladder. The urethra was ligated, and a polyethylene tube (PE-50) was inserted into the bladder. The internal pressure of the bladder was measured with a blood pressure amplifier (Nippon Koden), and the data was collected on a personal computer through an A/D converter (MP-30, Biopac Systems). A proper amount of physiological saline was injected into the bladder through a cannula to induce rhythmic contraction of the to bladder.
The area (AUC) that is formed by a curve of the internal pressure of the bladder and a base line was calculated through analytical software (Studentlab pro 2.1.5, Biopac Systems) to evaluate the effect of the test compounds. The curve of the internal pressure is made based on the bladder contraction immediately before administration of the test compound and the first contraction 5 minutes after the administration. From the dose-dependent curve of AUC, the dose at which AUC before drug administration was increased 2 times (AUC200) was calculated to determine potency of contraction-enhancing effect of the test compounds for the muscle of urinary bladder. In addition, the potency of contraction-enhancing effect of […] for the muscle of bladder was determined in the same manner as mentioned above.

guinea pigs [5] = assay: Effect on the flow rate of urine in guinea pigs, single or combined use, Experimental Example 4; format: in vivo, Hartley male guinea pigs; details: guinea pig; for Improvement (%): 10 minutes after administration
Excerpt: Effect on the flow rate of urine by single or combined use of Compounds of Reference Examples, distigmine, prazosin, and tamsulosin was examined using Hartley male guinea pigs. Four to six Hartley male guinea pigs weighing about 350 g (SLC) were employed in each treated group. Guinea pigs were anesthetized with urethane, and held, and the bladder was exposed. Two polyethylene tubes (PE-100) were inserted into the bladder. One of the tubes was used in infusion of physiological saline, and the other used for measurement of the internal pressure of the bladder. Saline was infused continuously at a flow rate of 0.3 mL/min. The infusion was stopped at the time when intermittent urination was confirmed at least 3 times, and the whole saline in bladder was removed. Again, infusion was started, and stopped at the time when a rise of the pressure in bladder was confirmed immediately before urination. Excreted urine was weighed on an electronic force balance (HX-400, A&D). Analogue data of the internal pressure of the bladder and urine weight were input in an AD converter (MP-30, Biopac Systems) and the digital signal was analyzed by means of purpose-made software (Student lab pro 2.1.5, Biopac Systems). Sampling interval of the date was fixed at 0.1 second, and the value of urine weight was differentiated to determine the flow rate of urine. In order to remove data noise of the excretion volume and flow rate of urine, the data was adapted to a lowcut filter at 0.5 Hz.
Measurement was made 2 times before administration of the test compound, and then the test compound was administered intravenously. Again, measurement was made 10 minutes after administration of the test compound.
The average measured value before administration of the test compounds was regarded as the value before administration, and the rate of change of the values from the ante-administration to the post-administration was calculated to compare between the groups by means of the Dunnet's test.

O=C(CCC1CCN(Cc2cccc(F)c2)CC1)c1cc2c3c(c1)CCN3C(=O)CC2 [Example 1, 8-[3-[1-[(3-fluorophenyl)-methyl]-4-piperidinyl]-1-oxopropyl]-1,2,5,6-tetrahydro-4H-pyrrolo-[3,2,1-ij]quinolin-4-one]
Remaining percent (%) ([1]; storing condition 1 (60° C./3 months), brown glass bottle, closed): 99.8% | Remaining percent (%) ([1]; storing condition 2 (40° C./75% RH, closed), 3 months, brown glass bottle): 101.6% | Remaining percent (%) ([1]; storing condition 3 (40° C./75% RH, open), 3 months, brown glass bottle): 100.2% | Remaining percent (%) ([1]; storing condition 4 (Xenon lamp/20 hs.), 60000 lux): 100.1% | stability (in words) ([1]; storing conditions 1 to 4): any change in the property and any decrease in the remaining percent were not observed | IC50 [2]: 6.6 nM

O=C(CCC1CCN(Cc2cccc(F)c2)CC1)c1cc2c3c(c1)CCN3C(=O)CC2 [Reference Example 15, 8-[3-[1-[(3-fluorophenyl)methyl]-4-piperidinyl]-1-oxopropyl]-1,2,5,6-tetrahydro-4H-pyrrolo[3,2,1-ij]quinolin-4-one]
IC50 [3]: 4.4 nM | Efficiency of Urination (%) Before adm. (guinea pigs [4]; 0.003 mg/kg i.v. group): 71.5 ± 7.9% | Efficiency of Urination (%) After adm. (guinea pigs [4]; 0.003 mg/kg i.v.): 79.6 ± 6.4% | Improvement of Efficiency (%) (guinea pigs [4]; 0.003 mg/kg i.v.): 16.2% | Efficiency of Urination (%) Before adm. (guinea pigs [4]; 0.01 mg/kg i.v. group): 60.0 ± 7.7% | Efficiency of Urination (%) After adm. (guinea pigs [4]; 0.01 mg/kg i.v.): 93.9 ± 3.0% | Improvement of Efficiency (%) (guinea pigs [4]; 0.01 mg/kg i.v.): 77.0** % | Efficiency of Urination (%) Before adm. (guinea pigs [4]; 0.03 mg/kg i.v. group): 65.5 ± 9.0% | Efficiency of Urination (%) After adm. (guinea pigs [4]; 0.03 mg/kg i.v.): 88.9 ± 3.1% | Improvement of Efficiency (%) (guinea pigs [4]; 0.03 mg/kg i.v.): 66.2* % | ED (2-fold bladder contraction AUC) (urinary bladder): 0.0013 mg/kg | Flow Rate (mL/sec) Ante-admn. (guinea pigs [5]; Ref. Ex. 15 0.001 mg/kg i.v. group, before administration (Table 9)): 0.17 ± 0.03 mL/s | Flow Rate (mL/sec) Post-admn. (guinea pigs [5]; Ref. Ex. 15 0.001 mg/kg i.v., 10 minutes after administration (Table 9)): 0.15 ± 0.02 mL/s | Improvement (%) (guinea pigs [5]; Ref. Ex. 15 0.001 mg/kg i.v., control distilled water (Table 9)): −6.5 ± 12.1% | Flow Rate (mL/sec) Ante-admn. (guinea pigs [5]; Ref. Ex. 15 0.01 mg/kg i.v. group, before administration (Table 8)): 0.27 ± 0.03 mL/s | Flow Rate (mL/sec) Post-admn. (guinea pigs [5]; Ref. Ex. 15 0.01 mg/kg i.v., 10 minutes after administration (Table 8)): 0.29 ± 0.05 mL/s | Improvement (%) (guinea pigs [5]; Ref. Ex. 15 0.01 mg/kg i.v., control DMSO (Table 8)): 6.81 ± 7.84%
